Assay [1] has as its target TYK2 (Homo sapiens (Human), UniProt P29597). Nature of the assay: Tyk2 radioactive kinase assay. Type of assay: biochemical. The note with it: ATP 10 μM. The procedure, abridged:
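Recombinant human TYK2 (Invitrogen) was mixed with 20 μM peptide substrate in a buffer of 20 mM Hepes pH 7.5, 10 mM MgCl2, 1 mM EGTA, 0.02% Brij35, 0.02 mg/mL BSA, 0.1 mM […], 2 mM DTT and 1% DMSO, and compounds in DMSO were added. Adding ^33P-ATP (10 μM ATP) started the reaction, which ran 120 min at room temperature. Mixtures were then spotted onto P81 ion-exchange paper, washed thoroughly in 0.75% phosphoric acid, and counted for radioactivity.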

The test system of assay [2] is Tyk2-pSTAT4 (IL-12 induced pSTAT4). Nature of the assay: IL-12 induced pSTAT4 in human PBMC. Type of assay: cell-based. Particulars: 1.7 ng/mL IL-12, 30 minutes. In outline: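 pSTAT4 and total STAT4 quantified by MSD in cell lysates after 30 minutes of 1.7 ng/mL IL-12 stimulation. Beforehand, compound (0.1% DMSO final) sat 1 hr at 37 C on 200,000 thawed buffy-coat PBMC per well in serum-containing medium.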

The target in assay [3] is JAK2 (Homo sapiens (Human), UniProt O60674). Nature of the assay: JAK2 radioactive kinase assay. Type of assay: biochemical. The note with it: ATP 10 μM. The procedure, abridged:
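Radiometric assay in Hepes pH 7.5, MgCl2, EGTA, Brij35, BSA, DTT, 1% DMSO, with 10 μM [33P]ATP, 120 min at room temp; P81 paper capture and counting. […]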

For assay [4], the system named is JAK2-pSTAT5 (GM-CSF induced pSTAT5). Nature of the assay: GM-CSF induced pSTAT5 in human PBMC. Type of assay: cell-based. Particulars: 5 ng/mL GM-CSF. The procedure, abridged: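 Thawed human PBMC, 200,000 per well in serum-containing medium, were preincubated 1 hr at 37 C with compound in 0.1% DMSO. GM-CSF at 5 ng/mL final was added for 20 minutes, then pSTAT5 and total STAT5 in lysates were measured by MSD immunoassay.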

As usually defined, the Ki is a dissociation constant, usually derived from enzyme kinetics or from competition with a known ligand. For orientation: EC50 means the concentration that produces a half-maximal response.

Some results are limits rather than exact numbers.

JAK2, sequence (O60674 whole entry): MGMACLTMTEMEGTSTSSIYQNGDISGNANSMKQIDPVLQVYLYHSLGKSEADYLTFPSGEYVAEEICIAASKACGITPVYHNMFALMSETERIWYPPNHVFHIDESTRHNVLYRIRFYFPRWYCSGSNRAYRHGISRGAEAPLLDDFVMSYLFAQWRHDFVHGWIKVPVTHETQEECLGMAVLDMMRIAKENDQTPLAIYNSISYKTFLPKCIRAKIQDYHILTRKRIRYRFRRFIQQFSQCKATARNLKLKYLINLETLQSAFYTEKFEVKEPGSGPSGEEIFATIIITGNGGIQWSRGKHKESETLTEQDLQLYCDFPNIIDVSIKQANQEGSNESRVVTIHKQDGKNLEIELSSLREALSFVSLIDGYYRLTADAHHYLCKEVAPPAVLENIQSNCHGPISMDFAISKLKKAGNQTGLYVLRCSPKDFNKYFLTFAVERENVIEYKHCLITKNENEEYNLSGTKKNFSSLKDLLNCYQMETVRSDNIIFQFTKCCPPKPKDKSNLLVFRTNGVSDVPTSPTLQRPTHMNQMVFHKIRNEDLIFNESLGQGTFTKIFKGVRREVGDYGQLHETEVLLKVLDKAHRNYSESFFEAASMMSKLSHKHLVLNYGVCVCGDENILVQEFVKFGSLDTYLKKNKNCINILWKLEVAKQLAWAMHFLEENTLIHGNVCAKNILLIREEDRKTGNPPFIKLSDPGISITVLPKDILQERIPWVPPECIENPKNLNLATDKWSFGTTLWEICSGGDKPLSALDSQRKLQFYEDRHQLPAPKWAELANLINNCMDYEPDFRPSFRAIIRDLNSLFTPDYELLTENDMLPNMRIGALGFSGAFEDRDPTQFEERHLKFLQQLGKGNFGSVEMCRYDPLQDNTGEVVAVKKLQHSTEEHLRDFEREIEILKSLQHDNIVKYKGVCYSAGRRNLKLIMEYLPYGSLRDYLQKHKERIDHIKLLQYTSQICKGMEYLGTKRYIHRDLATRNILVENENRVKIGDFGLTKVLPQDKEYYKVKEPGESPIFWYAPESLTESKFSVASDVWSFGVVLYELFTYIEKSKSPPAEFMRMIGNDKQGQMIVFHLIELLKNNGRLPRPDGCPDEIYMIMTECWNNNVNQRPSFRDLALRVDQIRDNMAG
TYK2, sequence (P29597 whole entry): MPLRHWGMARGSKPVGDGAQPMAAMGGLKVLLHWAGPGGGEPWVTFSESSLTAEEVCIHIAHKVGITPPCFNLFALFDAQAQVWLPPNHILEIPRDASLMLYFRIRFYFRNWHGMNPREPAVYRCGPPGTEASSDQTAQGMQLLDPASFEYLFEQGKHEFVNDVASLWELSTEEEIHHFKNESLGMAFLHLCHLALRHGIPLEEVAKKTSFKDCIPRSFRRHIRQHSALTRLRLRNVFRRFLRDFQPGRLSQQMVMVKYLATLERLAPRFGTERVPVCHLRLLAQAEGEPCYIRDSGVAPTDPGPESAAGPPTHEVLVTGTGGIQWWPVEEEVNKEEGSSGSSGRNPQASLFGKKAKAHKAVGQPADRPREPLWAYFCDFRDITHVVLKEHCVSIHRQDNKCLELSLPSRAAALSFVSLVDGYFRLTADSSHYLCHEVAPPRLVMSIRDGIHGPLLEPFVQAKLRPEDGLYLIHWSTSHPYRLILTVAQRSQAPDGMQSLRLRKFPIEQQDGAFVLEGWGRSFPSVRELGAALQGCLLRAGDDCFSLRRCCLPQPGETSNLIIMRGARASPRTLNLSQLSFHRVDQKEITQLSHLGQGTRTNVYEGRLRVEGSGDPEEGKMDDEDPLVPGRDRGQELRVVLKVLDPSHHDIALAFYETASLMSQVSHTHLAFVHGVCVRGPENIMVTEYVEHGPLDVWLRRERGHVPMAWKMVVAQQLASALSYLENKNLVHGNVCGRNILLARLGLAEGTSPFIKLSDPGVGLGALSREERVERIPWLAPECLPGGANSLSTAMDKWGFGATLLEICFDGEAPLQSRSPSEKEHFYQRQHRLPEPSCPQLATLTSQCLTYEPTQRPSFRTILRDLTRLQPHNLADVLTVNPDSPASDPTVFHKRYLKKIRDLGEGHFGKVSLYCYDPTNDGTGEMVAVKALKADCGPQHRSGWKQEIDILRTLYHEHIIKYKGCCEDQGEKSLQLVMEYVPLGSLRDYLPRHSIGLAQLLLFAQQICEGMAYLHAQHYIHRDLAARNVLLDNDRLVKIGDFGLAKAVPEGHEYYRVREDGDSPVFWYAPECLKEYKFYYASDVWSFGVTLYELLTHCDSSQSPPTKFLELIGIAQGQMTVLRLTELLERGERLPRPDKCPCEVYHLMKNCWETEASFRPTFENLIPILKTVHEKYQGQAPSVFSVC

`N#Cc1cccc(F)c1-c1cc(-n2cc(F)c(N3CC[C@@H](O)C3)n2)c2c(n1)CNC2=O` [I-189, (R)-3-fluoro-2-(4-(4-fluoro-3-(3-hydroxypyrrolidin-1-yl)-1H-pyrazol-1-yl)-5-oxo-6,7-dihydro-5H-pyrrolo[3,4-b]pyridin-2-yl)benzonitrile]: the Ki in assay [1] lay in the range of 0.1 to 10 nM; in assay [3], 10 to 100 nM. Further, the EC50 is 100 to 2000 nM in assay [2] (Homo sapiens, PBMC, 0.5 h) and over 2000 nM in assay [4] (Homo sapiens, PBMC, 20 min).
On to `N#Cc1cccc(F)c1-c1cc(-n2cc(F)c(N3CC[C@H](O)C3)n2)c2c(n1)CNC2=O` [I-190, (S)-3-fluoro-2-(4-(4-fluoro-3-(3-hydroxypyrrolidin-1-yl)-1H-pyrazol-1-yl)-5-oxo-6,7-dihydro-5H-pyrrolo[3,4-b]pyridin-2-yl)benzonitrile], for which the Ki is 0.1 to 10 nM in assay [1] and 10 to 100 nM in assay [3]. For the same compound, the EC50 fell in the range of 100 to 2000 nM in assay [2] (Homo sapiens, PBMC, 0.5 h) and 100 to 2000 nM in assay [4] (Homo sapiens, PBMC, 20 min).
For `N#Cc1cccc(F)c1-c1cc(-n2ccc(N3CCC(O)(C(=O)N4CCCC4)C3)n2)c2c(n1)CNC2=O` (centres unmarked) [I-191, 3-fluoro-2-(4-(3-(3-hydroxy-3-(pyrrolidine-1-carbonyl)-pyrrolidin-1-yl)-1H-pyrazol-1-yl)-5-oxo-6,7-dihydro-5H-pyrrolo[3,4-b]pyridin-2-yl)benzonitrile], the inhibition constant (Ki) in assay [1] and in assay [3] was 0.1 to 10 nM throughout. Besides, the EC50 lay in the range of 100 to 2000 nM in assay [2] (Homo sapiens, PBMC, 0.5 h) and 100 to 2000 nM in assay [4] (Homo sapiens, PBMC, 20 min).
On to `CO[C@@H]1CCN(c2ccn(-c3cc(-c4c(F)cccc4C#N)nc4c3C(=O)NC4)n2)C[C@H]1O` [I-193, 3-fluoro-2-(4-(3-((3R,4R)-3-hydroxy-4-methoxypiperidin-1-yl)-1H-pyrazol-1-yl)-5-oxo-6,7-dihydro-5H-pyrrolo[3,4-b]pyridin-2-yl)benzonitrile], for which the inhibitory constant (Ki) in assay [1] and in assay [3] was 0.1 to 10 nM throughout. Further, the EC50 in assay [2] (Homo sapiens, PBMC, 0.5 h) is 100 to 2000 nM; in assay [4] (Homo sapiens, PBMC, 20 min), over 2000 nM.
As for `CO[C@@H]1CN(c2ccn(-c3cc(-c4c(F)cccc4C#N)nc4c3C(=O)NC4)n2)CC[C@H]1O` [I-195, 3-fluoro-2-(4-(3-((3R,4R)-4-hydroxy-3-methoxypiperidin-1-yl)-1H-pyrazol-1-yl)-5-oxo-6,7-dihydro-5H-pyrrolo[3,4-b]pyridin-2-yl)benzonitrile], the Ki in assay [1] and in assay [3] was 0.1 to 10 nM in each case. The EC50 in assay [2] (Homo sapiens, PBMC, 0.5 h) lay within 30 to 100 nM; in assay [4] (Homo sapiens, PBMC, 20 min) it was 100 to 2000 nM.
For `[2H]C([2H])([2H])C1(O)C([2H])([2H])N(c2ccn(-c3cc(-c4c(F)cccc4C#N)nc4c3C(=O)NC4)n2)C([2H])([2H])C1([2H])[2H]` (centres unmarked) [I-196, 3-fluoro-2-(4-(3-(3-hydroxy-3-(methyl-d3)pyrrolidin-1-yl-2,2,4,4,5,5-d6)-1H-pyrazol-1-yl)-5-oxo-6,7-dihydro-5H-pyrrolo[3,4-b]pyridin-2-yl)benzonitrile], the Ki in assay [1] and in assay [3] was 0.1 to 10 nM each time. Moreover, the EC50 in assay [2] (Homo sapiens, PBMC, 0.5 h) is 30 to 100 nM; in assay [4] (Homo sapiens, PBMC, 20 min), 100 to 2000 nM.
As for `N#Cc1cccc(F)c1-c1cc(-n2ccc(N3CC[C@](O)(C(=O)N4CCCC4)C3)n2)c2c(n1)CNC2=O` [I-198, (R)-3-fluoro-2-(4-(3-(3-hydroxy-3-(pyrrolidine-1-carbonyl)-pyrrolidin-1-yl)-1H-pyrazol-1-yl)-5-oxo-6,7-dihydro-5H-pyrrolo[3,4-b]pyridin-2-yl)benzonitrile], the Ki in assay [1] lay within 0.1 to 10 nM; in assay [3], 10 to 100 nM. Moreover, the EC50 in assay [2] (Homo sapiens, PBMC, 0.5 h) was 100 to 2000 nM; in assay [4] (Homo sapiens, PBMC, 20 min) it was over 2000 nM.
The like results for `[2H]C1([2H])NC(=O)c2c(-n3ccc(N4C([2H])([2H])CC(O)(C([2H])([2H])[2H])C4([2H])[2H])n3)cc(-c3c(F)cccc3C#N)nc21` (centres unmarked) [I-200, 3-fluoro-2-(4-(3-(3-hydroxy-3-(methyl-d3)pyrrolidin-1-yl-2,2,5,5-d4)-1H-pyrazol-1-yl)-5-oxo-6,7-dihydro-5H-pyrrolo[3,4-b]pyridin-2-yl-7,7-d2)benzonitrile] were, in that order, 0.1 to 10 nM, 10 to 100 nM, 30 to 100 nM and 100 to 2000 nM.
For the compound `CO[C@@H]1CN(c2ccn(-c3cc(-c4c(F)cccc4C#N)nc4c3C(=O)NC4)n2)CC[C@H]1O` [I-201, 3-fluoro-2-(4-(3-((3R,4R)-4-hydroxy-3-methoxypiperidin-1-yl)-1H-pyrazol-1-yl)-5-oxo-6,7-dihydro-5H-pyrrolo[3,4-b]pyridin-2-yl)benzonitrile], the figures for the Ki in assay [1] and in assay [3] were 0.1 to 10 nM and 10 to 100 nM, respectively. Also, the EC50 is 30 to 100 nM in assay [2] and 100 to 2000 nM in assay [4] (20 minutes).
Regarding `CO[C@H]1CN(c2ccn(-c3cc(-c4c(F)cccc4C#N)nc4c3C(=O)NC4)n2)CC[C@@H]1O` [I-202, 3-fluoro-2-(4-(3-((3S,4S)-4-hydroxy-3-methoxypiperidin-1-yl)-1H-pyrazol-1-yl)-5-oxo-6,7-dihydro-5H-pyrrolo[3,4-b]pyridin-2-yl)benzonitrile], the Ki in assay [1] was 0.1 to 10 nM; in assay [3] it was 10 to 100 nM. For the same compound, the EC50 in assay [2] (Homo sapiens, PBMC, 0.5 h) lay in the range of 30 to 100 nM; in assay [4] (Homo sapiens, PBMC, 20 min) it was 100 to 2000 nM.
On to `[2H]C1([2H])N(c2ccn(-c3cc(-c4c(F)cccc4C#N)nc4c3C(=O)NC4)n2)C([2H])([2H])C([2H])([2H])C([2H])(O)C1([2H])[2H]` [I-203, 3-fluoro-2-(4-(3-(4-hydroxypiperidin-1-yl-2,2,3,3,4,5,5,6,6-d9)-1H-pyrazol-1-yl)-5-oxo-6,7-dihydro-5H-pyrrolo[3,4-b]pyridin-2-yl)benzonitrile], for which the Ki in assay [1] is 0.1 to 10 nM; in assay [3] it was 10 to 100 nM. Also, the EC50 was 30 to 100 nM in assay [2] (Homo sapiens, PBMC, 0.5 h) and 100 to 2000 nM in assay [4] (Homo sapiens, PBMC, 20 min).
As to `CC1(C)[C@H](O)CCN1c1ccn(-c2cc(-c3c(F)cccc3C#N)nc3c2C(=O)NC3)n1` [I-204, (R)-3-fluoro-2-(4-(3-(3-hydroxy-2,2-dimethylpyrrolidin-1-yl)-1H-pyrazol-1-yl)-5-oxo-6,7-dihydro-5H-pyrrolo[3,4-b]pyridin-2-yl)benzonitrile], the inhibition constant Ki is 0.1 to 10 nM in assay [1] and 10 to 100 nM in assay [3]. For the same compound, the EC50 in assay [2] (Homo sapiens, PBMC, 0.5 h) was 30 to 100 nM; in assay [4] (Homo sapiens, PBMC, 20 min), over 2000 nM.
Take `CC1(C)[C@@H](O)CCN1c1ccn(-c2cc(-c3c(F)cccc3C#N)nc3c2C(=O)NC3)n1` [I-205, (S)-3-fluoro-2-(4-(3-(3-hydroxy-2,2-dimethylpyrrolidin-1-yl)-1H-pyrazol-1-yl)-5-oxo-6,7-dihydro-5H-pyrrolo[3,4-b]pyridin-2-yl)benzonitrile]: the results for the Ki in assay [1] and in assay [3] were 0.1 to 10 nM and 10 to 100 nM, respectively. For the same compound, the EC50 in assay [2] (Homo sapiens, PBMC, 0.5 h) lay within 30 to 100 nM; in assay [4] (Homo sapiens, PBMC, 20 min), 100 to 2000 nM.
On to `[2H]C1([2H])NC(=O)c2c(-n3ccc(N4C([2H])([2H])C[C@@](O)(C([2H])([2H])[2H])C4([2H])[2H])n3)cc(-c3c(F)cccc3C#N)nc21` [I-206, (S)-3-fluoro-2-(4-(3-(3-hydroxy-3-(methyl-d3)pyrrolidin-1-yl-2,2,5,5-d4)-1H-pyrazol-1-yl)-5-oxo-6,7-dihydro-5H-pyrrolo[3,4-b]pyridin-2-yl-7,7-d2)benzonitrile], for which the Ki was 0.1 to 10 nM in assay [1] and 10 to 100 nM in assay [3]. The EC50 in assay [2] (Homo sapiens, PBMC, 0.5 h) was in the range of 30 to 100 nM; in assay [4] (Homo sapiens, PBMC, 20 min), 100 to 2000 nM.

The values above are taken from patent publication US10781204B2, “TYK2 inhibitors and uses thereof” (Nimbus Lakshmi, Inc., priority 2015, dated 2020).
